Earlier results as cited in patent US9504662B2, “Composition for skin improvement comprising hexamidines and retinoids” (AMOREPACIFIC CORPORATION, priority 2009, dated 2016).

Conditions: 4 μM of retinol vs 100 nM of Isotretinoin; general statement, no method given

## CC1=C(/C=C/C(C)=C/C=C/C(C)=C/CO)C(C)(C)CCC1 [retinol]
  sebum-inhibiting effect: substantially has the same degree of sebum-inhibiting effect as 100 nM of Isotretinoin
